Measurements taken from patent US11555055B2, “Peptide inhibitors of insulin-degrading enzyme” (The Regents of the University of California, priority 2017, dated 2023).
“Also recorded” adds a separate entry of the source. Where a SMILES comes first, the peptide text is derived from it. Bridges are numbered along the chain shown (N, C = ends).

Experiments:
[1] = system: primary murine skin fibroblasts; assay: Western blotting of cell-associated mature alpha-1 type I collagen; type: cell-based, mouse; details: P12-3A 100 μM
Experimental: (§1) FIG. 4A-F. Effects of P12-3A on cultured skin cells. A, Insulin concentrations as a function of time in logarithmically growing primary murine skin fibroblasts in the absence or presence of P12-3A (100 μM). […] Data are mean±SEM of 4 independent replications. *P<0.05, **P<0.01. B, Proliferation of cells in the absence or presence of P12-3A (100 μM). […] C,D,E, P12-3A (100 μM) potentiates insulin-induced collagen production in skin fibroblasts. Collagen production was assessed by COL1A1 mRNA levels (C), levels of hydroxyproline secreted into the medium (D), and cell-associated mature alpha-1 type I collagen levels detected by Western blotting (E). […] Migration of HaCaT cells 48 h after induction of a scratch wound in the presence of the indicated quantities of insulin and/or P12-3A (100 μM). […]
(§2) Insulin promotes wound healing and overall skin health by affecting a number of processes, including cell proliferation (2,3), cell migration (5,6), and the production and secretion of ECM components, particularly type I collagen (7-13). We therefore assessed the ability of P12-3A to influence these processes in cultured skin fibroblasts and keratinocytes. To that end, primary mouse skin fibroblasts were grown for 4 d in multiple concentrations of insulin in the presence or absence of P12-3A, and insulin concentration over time was monitored by ELISA. […]

[2] = system: primary murine skin fibroblasts; assay: Insulin degradation in cultured skin fibroblasts, insulin in medium by ELISA; type: cell-based, mouse; details: 100 μM P12-3A, 10 nM insulin, up to day 4, logarithmically growing cells
Experimental: as §1, §2

HaCaT cells = assay: In vitro scratch wound assay, keratinocyte migration; type: cell-based; details: P12-3A 100 μM, 48 h after scratch wound, different concentrations of insulin
Experimental: as §1, §2

`CC(C)C[C@H](NC(=O)[C@H](CO)NC(=O)[C@@H](N)CCC(N)=O)C(=O)N1CCC[C@H]1C(=O)N[C@@H](Cc1c[nH]c2ccccc12)C(=O)N[C@H]1CSSC[C@@H](C(=O)N[C@H](C(=O)N[C@H](C(N)=O)[C@@H](C)O)C(C)C)NC(=O)[C@H](Cc2c[nH]cn2)NC(=O)[C@@H]2CCCN2C(=O)[C@H](Cc2ccc(O)cc2)NC1=O` [Peptide P12-3A] (H-QSLPWCYPHCVT-NH2; disulfide 6-10 (inferred)) was tested, and the “mature, cell-associated collagen levels” value [1] was “increased”, the “insulin levels over time in cell culture” value [2] was “remain constant” and the migration of keratinocytes (HaCaT cells) was “significantly increase; also recorded: potentiates the migration of keratinocytes”.
